The values that follow come from ChEMBL document CHEMBL3217749, “Design and synthesis of novel pyranone-based insulin sensitizers exhibiting in vivo hepatoprotective activity” (2013).

The source made the active and inactive calls. The rule behind the calls is not given here.

Test [1] in a line: Upregulation of FAS protein expression in differentiated mouse 3T3L1 cells after 7 days by western blot analysis. Format: functional, cell-based. Particulars: 3T3-L1. Background: A western blot detects proteins with antibodies after separation by electrophoresis.
Test [2] has as its system Mus musculus. The test can be described thus: Hepatoprotective activity against thioacetamide-induced liver toxicity in Swiss albino mouse assessed as protection in serum ALT activity at 20 mg/kg administered for 7 days started 1 day after thioacetamide challenge measured on day 8. The format is functional.
Test [3] concerns 3T3-L1. Nature of the test: Inhibition of chronic insulin-stimulated insulin resistance in differentiated mouse 3T3L1 cells assessed as 2-deoxy-D-[3H]-glucose uptake after 24 hrs by scintillation counting analysis. Format: functional, cell-based.
Test [4] has as its system Mus musculus. Nature of the test: Hepatoprotective activity against thioacetamide-induced liver toxicity in Swiss albino mouse assessed as protection in serum ALP activity at 20 mg/kg administered for 7 days started 1 day after thioacetamide challenge measured on day 8. The format is functional.
Test [5] has as its system Mus musculus. Nature of the test: Hepatoprotective activity against thioacetamide-induced liver toxicity in Swiss albino mouse assessed as protection in serum total bilirubin activity at 20 mg/kg administered for 7 days started 1 day after thioacetamide challenge measured on day 8. Format: functional.
Test [6] relates to 3T3-L1. Nature of the test: Induction of adipogenesis in mouse 3T3L1 cells assessed as lipid accumulation at 10 uM on day 8 by oil Red O staining. The format is functional, cell-based.
The test system of test [7] is Mus musculus. The test can be described thus: Hepatoprotective activity against thioacetamide-induced liver toxicity in Swiss albino mouse assessed as protection against histological damage at 20 mg/kg administered for 7 days started 1 day after thioacetamide challenge measured on day 8 by hematoxylin-eosin staining. The format is functional, organism-based. Further details: dose 20 mg/kg.

Test [8] concerns Mus musculus. Nature of the test: Hepatoprotective activity against thioacetamide-induced liver toxicity in Swiss albino mouse assessed as protection in serum AST activity at 20 mg/kg administered for 7 days started 1 day after thioacetamide challenge measured on day 8. Format: functional.
Test [9] concerns 3T3-L1. The test can be described thus: Induction of insulin-stimulated 2-deoxy-D-[3H]-glucose uptake in differentiated mouse 3T3L1 cells at 10 uM after 24 hrs by scintillation counting analysis. Format: functional, cell-based.
The nature of test [10]: Upregulation of aP2 protein expression in differentiated mouse 3T3L1 cells after 7 days by western blot analysis. As to conditions: 3T3-L1. The format is functional, cell-based.
For test [11], the system named is Mus musculus. The test can be described thus: Hepatoprotective activity against thioacetamide-induced liver toxicity in Swiss albino mouse assessed as protection in serum total bilirubin activity at 20 mg/kg, po administered for 7 days started 1 day after thioacetamide challenge measured on day 8. Format: functional, organism-based. Further details: dose 20 mg/kg.

Test [12] relates to Mus musculus. Nature of the test: Hepatoprotective activity against thioacetamide-induced liver toxicity in Swiss albino mouse assessed as protection in serum AST activity at 20 mg/kg, po administered for 7 days started 1 day after thioacetamide challenge measured on day 8. The format is functional, organism-based. Set-up: dose 20 mg/kg.
Test [13] deals with Mus musculus. Nature of the test: Hepatoprotective activity against thioacetamide-induced liver toxicity in Swiss albino mouse assessed as protection in serum ALP activity at 20 mg/kg, po administered for 7 days started 1 day after thioacetamide challenge measured on day 8. Further details: dose 20 mg/kg. The format is functional, organism-based.
Test [14] concerns Mus musculus. The test can be described thus: Hepatoprotective activity against thioacetamide-induced liver toxicity in Swiss albino mouse assessed as protection in serum ALT activity at 20 mg/kg, po administered for 7 days started 1 day after thioacetamide challenge measured on day 8. The format is functional, organism-based. Further details: dose 20 mg/kg.
Test [15] relates to Mus musculus. Nature of the test: Hepatoprotective activity against thioacetamide-induced liver toxicity in Swiss albino mouse assessed as protection against histological damage at 20 mg/kg, po administered for 7 days started 1 day after thioacetamide challenge measured on day 8 by hematoxylin-eosin staining. The format is functional, organism-based. Set-up: dose 20 mg/kg.

Regarding `CN(CCBr)c1cc(-c2ccc(Cl)cc2)oc(=O)c1C#N`, the outcome (in test [1]; with 3T3-L1 [6]; in the test with Mus musculus [7]; in the test with 3T3-L1 [9]) was Active. Moreover, the Activity with Mus musculus [2] turned out to be 100%; in the test on Mus musculus [4], 100%; with Mus musculus [5] it was 100%; in the test on Mus musculus [8], 87%. The “Inhibition activity (active/not active)” value with 3T3-L1 [3] is “Active”. For the same compound, in [10], the result was inactive.

As to `CN(CCOc1ccc(CC2SC(=O)NC2=O)cc1)c1ccccn1` (centres undefined), the outcome (in [1]; in the test with 3T3-L1 [9]; in test [10]) was Active. Besides, the “Inhibition activity (active/not active)” value in the test on 3T3-L1 [3] was “Active”.

As to `COc1ccc(-c2cc(N(C)CCOC(=O)Cc3ccc(O)cc3)c(C#N)c(=O)o2)cc1`, the outcome (in test [1]; in the test with 3T3-L1 [6]; with Mus musculus [7]; with 3T3-L1 [9]; in test [10]) was Active. Also, the Activity was determined as 92% in the test with Mus musculus [2], 100% in the test with Mus musculus [4], 100% in the test with Mus musculus [5] and 60% with Mus musculus [8]. Further, the “Inhibition activity (active/not active)” value in the test on 3T3-L1 [3] was “inactive”.

With SILYMARIN, the Activity with Mus musculus [11] is 100%; with Mus musculus [12] it was 95%; in the test with Mus musculus [13], 100%; in the test on Mus musculus [14] it was 93%. For the same compound, the result in the test on Mus musculus [15] was Active.

On to `COc1ccc(-c2cc(N(C)CCN3C(=O)SC(Cc4cccc(O)c4)C3=O)c(C#N)c(=O)o2)cc1` (centres undefined), for which the result (in [1]; in the test on 3T3-L1 [6]; in the test on Mus musculus [7]; in the test with 3T3-L1 [9]; in test [10]) was Active. The Activity is 89% in the test on Mus musculus [2], 100% with Mus musculus [4], 100% with Mus musculus [5] and 75% in the test with Mus musculus [8]. In the test with 3T3-L1 [3], the “Inhibition activity (active/not active)” value was “inactive”.
